{"source": "paper PMC7582316", "about": "“Structural and Computational Insights into a Blebbistatin-Bound Myosin•ADP Complex with Characteristics of an ADP-Release Conformation along the Two-Step Myosin Power Stoke” (International Journal of Molecular Sciences, 2020)", "biological_target": "T1, Dd myosin-II motor domain (Dictyostelium discoideum, UniProt P08799)", "T1 construct": "gene mhcA; His6-tagged motor domain, amino acids 1–765 fused to a C-terminal SSB tag", "T1 sequence (P08799 1-765)": "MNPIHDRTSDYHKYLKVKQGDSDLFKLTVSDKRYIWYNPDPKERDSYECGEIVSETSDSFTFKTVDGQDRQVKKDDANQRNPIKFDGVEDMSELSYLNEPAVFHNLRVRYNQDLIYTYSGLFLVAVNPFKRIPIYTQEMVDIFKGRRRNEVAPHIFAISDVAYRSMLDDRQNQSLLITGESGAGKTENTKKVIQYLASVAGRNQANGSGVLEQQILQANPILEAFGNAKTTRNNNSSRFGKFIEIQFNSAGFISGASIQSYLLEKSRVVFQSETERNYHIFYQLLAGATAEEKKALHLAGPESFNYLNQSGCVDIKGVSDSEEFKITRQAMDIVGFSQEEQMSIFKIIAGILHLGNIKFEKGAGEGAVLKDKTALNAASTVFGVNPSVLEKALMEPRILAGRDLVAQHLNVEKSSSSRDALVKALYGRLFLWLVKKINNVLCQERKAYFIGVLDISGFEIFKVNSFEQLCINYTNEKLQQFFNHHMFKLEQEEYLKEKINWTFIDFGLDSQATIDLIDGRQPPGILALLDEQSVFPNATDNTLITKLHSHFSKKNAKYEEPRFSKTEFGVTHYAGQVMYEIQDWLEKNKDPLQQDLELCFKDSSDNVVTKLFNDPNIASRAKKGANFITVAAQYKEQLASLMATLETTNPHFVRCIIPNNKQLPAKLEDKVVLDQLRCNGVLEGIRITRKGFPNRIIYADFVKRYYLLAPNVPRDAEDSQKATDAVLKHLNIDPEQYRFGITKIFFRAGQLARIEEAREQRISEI", "assay": "microscale thermophoresis (MST); also X-ray crystal structure with blebbistatin", "assay_type": "binding", "data": [{"compound": "Nc1ncnc2c1ncn2[C@@H]1O[C@H](COP(=O)(O)OP(=O)(O)O)[C@@H](O)[C@H]1O", "note": "[ADP]", "values": [{"measurement": "Kd", "value": "37.5 ± 7.3", "unit": "µM"}]}]}
